Test results: paper PMC6718442, “11β-Hydroxysteroid dehydrogenases control access of 7β,27-dihydroxycholesterol to retinoid-related orphan receptor γ” (Journal of Lipid Research, 2019)
Where two headings read alike, the source gives them in different places.

Key:
human 11β-HSD1 [1] = biological target: T1, human 11β-HSD1 (Homo sapiens, UniProt P28845); conditions: substrate of 11β-HSD1, cited from earlier work
T1 construct: expressed in transfected cells

RORγ = biological target: T2, RORγ (Homo sapiens, UniProt P51449); test: Glucose-6-phosphatase luciferase reporter in SW-620 cells overexpressing RORγ (preliminary); assay type: cell-based; parameters: expressed in transfected cells; host or cells: SW-620; conditions: inhibition of 11β-HSD2 by GA in SW-620 cells, trend
T2 sequence (P51449 1-518): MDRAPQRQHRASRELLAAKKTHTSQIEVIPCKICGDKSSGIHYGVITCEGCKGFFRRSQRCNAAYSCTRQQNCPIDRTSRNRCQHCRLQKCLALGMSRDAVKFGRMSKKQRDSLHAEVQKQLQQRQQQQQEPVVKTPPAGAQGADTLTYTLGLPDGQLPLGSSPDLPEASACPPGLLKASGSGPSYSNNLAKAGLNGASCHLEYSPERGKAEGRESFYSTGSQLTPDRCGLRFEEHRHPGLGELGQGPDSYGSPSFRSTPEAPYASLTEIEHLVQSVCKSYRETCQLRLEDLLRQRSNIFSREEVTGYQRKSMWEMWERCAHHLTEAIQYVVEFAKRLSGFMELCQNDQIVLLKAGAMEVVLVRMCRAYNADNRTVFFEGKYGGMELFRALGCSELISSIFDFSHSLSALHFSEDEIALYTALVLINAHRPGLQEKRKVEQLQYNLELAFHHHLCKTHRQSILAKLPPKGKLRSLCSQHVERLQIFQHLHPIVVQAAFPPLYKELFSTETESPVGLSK

11β-HSD2 [2] = biological target: T3, 11β-HSD2 (Homo sapiens, UniProt P80365); conditions: substrate of 11β-HSD2, ref [34], cited from earlier work
T3 construct: expressed in transfected cells
T3 sequence (P80365 1-405): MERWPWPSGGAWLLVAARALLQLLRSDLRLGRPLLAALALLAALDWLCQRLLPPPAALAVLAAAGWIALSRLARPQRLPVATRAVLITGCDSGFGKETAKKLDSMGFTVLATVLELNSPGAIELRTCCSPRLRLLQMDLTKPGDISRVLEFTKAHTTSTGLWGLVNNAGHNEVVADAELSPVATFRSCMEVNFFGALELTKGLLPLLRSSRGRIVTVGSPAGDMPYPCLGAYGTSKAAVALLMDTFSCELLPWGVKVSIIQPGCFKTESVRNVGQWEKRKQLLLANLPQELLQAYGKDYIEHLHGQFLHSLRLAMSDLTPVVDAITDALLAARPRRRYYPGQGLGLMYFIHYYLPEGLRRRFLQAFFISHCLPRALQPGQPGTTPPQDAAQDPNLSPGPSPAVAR

11β-HSD2 [3] = biological target: T3, 11β-HSD2; parameters: method as in PMID 30902677; conditions: intact cells, oxidation by 11β-HSD2, ref [46], cited from earlier work
human 11β-HSD1 [4] = biological target: T1, human 11β-HSD1; parameters: method as in PMID 30902677; conditions: intact cells, oxoreduction by 11β-HSD1, ref [46], cited from earlier work

T1 sequence (P28845 whole entry): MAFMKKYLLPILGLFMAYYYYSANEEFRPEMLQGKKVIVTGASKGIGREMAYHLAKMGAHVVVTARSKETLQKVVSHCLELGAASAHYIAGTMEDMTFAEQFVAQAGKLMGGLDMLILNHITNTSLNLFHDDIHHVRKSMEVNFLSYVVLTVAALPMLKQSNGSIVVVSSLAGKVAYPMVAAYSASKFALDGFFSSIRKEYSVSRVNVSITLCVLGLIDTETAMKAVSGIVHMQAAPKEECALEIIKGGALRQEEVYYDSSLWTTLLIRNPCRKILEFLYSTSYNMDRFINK

CC(C)CCC[C@@H](C)[C@H]1CC[C@H]2[C@@H]3C(=O)C=C4C[C@@H](O)CC[C@]4(C)[C@H]3CC[C@]12C [7kC, 7-ketocholesterol]
KMapp (human 11β-HSD1 [1]; ref [19]): ~500 nM

C[C@H](CCC(=O)O)[C@H]1CC[C@H]2[C@@H]3C(=O)C[C@@H]4C[C@H](O)CC[C@]4(C)[C@H]3CC[C@]12C [7oxoLCA, 7-oxolithocholic acid]
KMapp (human 11β-HSD1 [1]; ref [49]): ~1000 nM

C[C@]12CC(=O)[C@H]3[C@@H](CCC4=CC(=O)CC[C@@]43C)[C@@H]1CC[C@@H]2C(=O)CO [11-DHC, 11-dehydrocorticosterone]
KMapp (human 11β-HSD1 [1]; ref [19], [34]): 250 to 500 nM

CC1(C)[C@@H](O)CC[C@]2(C)[C@H]3C(=O)C=C4[C@@H]5C[C@@](C)(C(=O)O)CC[C@]5(C)CC[C@@]4(C)[C@]3(C)CC[C@@H]12 [GA, glycyrrhetinic acid]
Increase of RORγ activity compared with cells treated with 7β27OHC only (RORγ): approximately 10%

C[C@]12CCC(=O)C=C1CC[C@@H]1[C@@H]2[C@@H](O)C[C@@]2(C)[C@H]1CC[C@]2(O)C(=O)CO [cortisol]
KMapp (11β-HSD2 [2]): ~200 nM
KMapp (11β-HSD2 [2]; listed as Cortisol): 200 ([34]) nM
Vapp cell intact (11β-HSD2 [3]): 1.01 ± 0.35 nmol·h^−1·mg total protein^−1
Vapp cell intact (11β-HSD2 [3]; listed as Cortisol): 1.01 ± 0.35 ([46]) nmol·h^−1·mg total protein^−1

C[C@]12CCC(=O)C=C1CC[C@@H]1[C@@H]2C(=O)C[C@@]2(C)[C@H]1CC[C@]2(O)C(=O)CO [cortisone, reference compound]
KMapp (human 11β-HSD1 [1]; ref [19], [34]): 250 to 500 nM
KMapp (human 11β-HSD1 [1]; ref [19], [34], listed as Cortisone): 250–500 ([19], [34]) nM
Vapp cell intact (human 11β-HSD1 [4]): 1.59 ± 0.25 nmol·h^−1·mg total protein^−1
Vapp cell intact (human 11β-HSD1 [4]; listed as Cortisone): 1.59 ± 0.25 ([46]) nmol·h^−1·mg total protein^−1
